For 26 compounds, IC50 results are on record in patent US10428083B2, “Heterocyclylmethyl-thienouracile as antagonists of the adenosine-A2B-receptor” (BAYER PHARMA AKTIENGESELLSCHAFT, priority 2015, dated 2019).

The assay addresses human adenosine A2b receptor (Homo sapiens (Human), UniProt P29275). The assay is described as follows: Cellular in vitro reporter gene test for A2b receptor activity (CHO-K1, CRE-luciferase, NECA stimulation). The settings on record: recombinant CHO-K1 cell line, CRE-luciferase reporter, antagonism of EC50 concentration of NECA; in some cases means of several determinations, rounded to two significant figures; read-out: A2b receptor IC50. The format is cell-based. On the procedure: B-1. Cellular In Vitro Tests for Determining A2b Receptor Activity and Adenosine Receptor Selectivity
In the case of the A2a and A2b cell lines, this is a minimal promoter having a plurality of cAMP-responsive elements (CRE). Stimulation of the Gs-coupled A2b or A2a receptors by NECA ultimately leads, via formation of cAMP, to CRE-dependent induction of luciferase expression, which is detected 3 hours after the start of the incubation with NECA using a detection solution in a suitable luminometer. For testing the antagonists, initially, in a pre-experiment, the concentration of NECA which, at the test day in question, results in half-maximum stimulation of luciferase expression (EC50 concentration) is determined. By joint incubation of this EC50 concentration of NECA with the substances to be tested, it is possible to determine their antagonistic activity.
(In a reporter assay the amount or activity of a reporter protein is the signal.)

Sequence of human adenosine A2b receptor (P29275 whole entry): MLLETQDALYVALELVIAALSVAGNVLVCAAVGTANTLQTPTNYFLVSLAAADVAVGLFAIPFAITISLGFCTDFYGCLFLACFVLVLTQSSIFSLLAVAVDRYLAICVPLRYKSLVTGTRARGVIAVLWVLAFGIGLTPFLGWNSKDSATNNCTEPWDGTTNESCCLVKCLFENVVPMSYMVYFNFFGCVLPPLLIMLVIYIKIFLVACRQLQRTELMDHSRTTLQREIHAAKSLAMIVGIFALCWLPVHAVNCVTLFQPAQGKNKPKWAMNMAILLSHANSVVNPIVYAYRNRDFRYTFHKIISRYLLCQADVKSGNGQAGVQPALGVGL

Consider `Cc1c(CN2CCNC2=O)sc2c1c(=O)n(CC(C)C)c(=O)n2CC1CCO1` (racemic) [Example 194, 3-Isobutyl-5-methyl-1-(oxetan-2-ylmethyl)-6-[(2-oxoimidazolidin-1-yl)methyl]thieno[2,3-d]pyrimidine-2,4(1H,3H)-dione], for which the 50% inhibitory concentration (IC50) (as a rule, the concentration that inhibits the measured activity by half) worked out at 15 nM.
The figure for `Cc1c(CN2CCNC2=O)sc2c1c(=O)n(CC(F)(F)F)c(=O)n2CC1CCO1` (racemic) [Example 206, 5-Methyl-1-(oxetan-2-ylmethyl)-6-[(2-oxoimidazolidin-1-yl)methyl]-3-(2,2,2-trifluoroethyl)thieno[2,3-d]pyrimidine-2,4(1H,3H)-dione] is 11 nM; for `Cc1c(CN2CCNC2=O)sc2c1c(=O)n(CC(F)(F)F)c(=O)n2CC1CCCO1` (racemic) [Example 209, 5-Methyl-6-[(2-oxoimidazolidin-1-yl)methyl]-1-(tetrahydrofuran-2-ylmethyl)-3-(2,2,2-trifluoroethyl)thieno[2,3-d]pyrimidine-2,4(1H,3H)-dione] it is 12 nM; for `Cc1c(CN2CCNC2=O)sc2c1c(=O)n(CC(F)F)c(=O)n2CC1CCO1` (racemic) [Example 216, 3-(2,2-Difluoroethyl)-5-methyl-1-(oxetan-2-ylmethyl)-6-[(2-oxoimidazolidin-1-yl)methyl]thieno[2,3-d]pyrimidine-2,4(1H,3H)-dione] it is 34 nM.
As for `Cc1c(CN2CCNC2=O)sc2c1c(=O)n(CC(F)F)c(=O)n2CC1CCCO1` (racemic) [Example 219, 3-(2,2-Difluoroethyl)-5-methyl-6-[(2-oxoimidazolidin-1-yl)methyl]-1-(tetrahydrofuran-2-ylmethyl)thieno[2,3-d]pyrimidine-2,4(1H,3H)-dione], the IC50 came to 19 nM.
The result for `COCCn1c(=O)c2c(C)c(CN3CCNC3=O)sc2n(CC2CCCO2)c1=O` (racemic) [Example 233, 3-(2-Methoxyethyl)-5-methyl-6-[(2-oxoimidazolidin-1-yl)methyl]-1-(tetrahydrofuran-2-ylmethyl)thieno[2,3-d]pyrimidine-2,4(1H,3H)-dione] reads 23 nM; that for `CCn1c(=O)c2c(C)c(Cn3cc[nH]c3=O)sc2n(CC2CCCO2)c1=O` (racemic) [Example 242, 3-Ethyl-5-methyl-6-[(2-oxo-2,3-dihydro-1H-imidazol-1-yl)methyl]-1-(tetrahydrofuran-2-ylmethyl)thieno[2,3-d]pyrimidine-2,4(1H,3H)-dione], 1.4 nM; that for `Cc1c(Cn2cc[nH]c2=O)sc2c1c(=O)n(C(C)C)c(=O)n2CC1CCCO1` (racemic) [Example 247, 3-Isopropyl-5-methyl-6-[(2-oxo-2,3-dihydro-1H-imidazol-1-yl)methyl]-1-(tetrahydrofuran-2-ylmethyl)thieno[2,3-d]pyrimidine-2,4(1H,3H)-dione], 8.9 nM.
Regarding `CCn1c(=O)c2c(C)c(CN3CCNC3=NC#N)sc2n(CC2CCO2)c1=O` (racemic) [Example 256, [1-{[3-Ethyl-5-methyl-1-(oxetan-2-ylmethyl)-2,4-dioxo-1,2,3,4-tetrahydrothieno[2,3-d]pyrimidin-6-yl]methyl}imidazolidin-2-ylidene]cyanamide], the IC50 stood at 11 nM.
In the case of `CCn1c(=O)c2c(C)c(CN3CCNC3=NC#N)sc2n(CC2CCCO2)c1=O` (racemic) [Example 259, [1-{[3-Ethyl-5-methyl-2,4-dioxo-1-(tetrahydrofuran-2-ylmethyl)-1,2,3,4-tetrahydrothieno[2,3-d]pyrimidin-6-yl]methyl}imidazolidin-2-ylidene]cyanamide], the concentration for half-maximal inhibition (IC50) is 9.8 nM.
Turning to `Cc1c(CN2CCNC2=NC#N)sc2c1c(=O)n(C(C)C)c(=O)n2CC1CCO1` (racemic) [Example 264, [1-{[3-Isopropyl-5-methyl-1-(oxetan-2-ylmethyl)-2,4-dioxo-1,2,3,4-tetrahydrothieno[2,3-d]pyrimidin-6-yl]methyl}imidazolidin-2-ylidene]cyanamide], the 50% inhibitory concentration (IC50) amounted to 3.1 nM.
The figure for `Cc1c(CN2CCNC2=NC#N)sc2c1c(=O)n(C(C)C)c(=O)n2CC1CCCO1` (racemic) [Example 267, [1-{[3-Isopropyl-5-methyl-2,4-dioxo-1-(tetrahydrofuran-2-ylmethyl)-1,2,3,4-tetrahydrothieno[2,3-d]pyrimidin-6-yl]methyl}imidazolidin-2-ylidene]cyanamide] is 4.6 nM.
For `Cc1c(CN2CCNC2=NC#N)sc2c1c(=O)n(CC(F)(F)F)c(=O)n2CC1CCCO1` (racemic) [Example 269, [1-{[5-Methyl-2,4-dioxo-1-(tetrahydrofuran-2-ylmethyl)-3-(2,2,2-trifluoroethyl)-1,2,3,4-tetrahydrothieno[2,3-d]pyrimidin-6-yl]methyl}imidazolidin-2-ylidene]cyanamide], the half-maximal inhibitory concentration (IC50) was determined as 24 nM.
The result for `COCCn1c(=O)c2c(C)c(CN3CCNC(=O)C3=O)sc2n(CC2CCCO2)c1=O` (racemic) [Example 278, 6-[(2,3-Dioxopiperazin-1-yl)methyl]-3-(2-methoxyethyl)-5-methyl-1-(tetrahydrofuran-2-ylmethyl)thieno[2,3-d]pyrimidine-2,4(1H,3H)-dione] reads 130 nM; that for `Cc1c(Cn2[nH]ccc2=O)sc2c1c(=O)n(CC(F)(F)F)c(=O)n2CC1CCCO1` (racemic) [Example 284, 5-Methyl-6-[(5-oxo-2,5-dihydro-1H-pyrazol-1-yl)methyl]-1-(tetrahydrofuran-2-ylmethyl)-3-(2,2,2-trifluoroethyl)thieno[2,3-d]pyrimidine-2,4(1H,3H)-dione], 79 nM.
The figure for `COCCn1c(=O)c2c(C)c(Cn3[nH]ccc3=O)sc2n(CC2CCCO2)c1=O` (racemic) [Example 289, 3-(2-Methoxyethyl)-5-methyl-6-[(5-oxo-2,5-dihydro-1H-pyrazol-1-yl)methyl]-1-(tetrahydrofuran-2-ylmethyl)thieno[2,3-d]pyrimidine-2,4(1H,3H)-dione] is 180 nM.
The figure for `CCn1c(=O)c2c(C)c(CN3CC(C)NC3=S)sc2n(CCOC)c1=O` (racemic) [Example 303, 3-Ethyl-1-(2-methoxyethyl)-5-methyl-6-[(4-methyl-2-thioxoimidazolidin-1-yl)methyl]thieno[2,3-d]pyrimidine-2,4(1H,3H)-dione] is 46 nM.
For `COCCn1c(=O)n(CC2CC2(F)F)c(=O)c2c(C)c(CN3CCNC3=O)sc21` (racemic) [Example 323, 3-[(2,2-Difluorocyclopropyl)methyl]-1-(2-methoxyethyl)-5-methyl-6-[(2-oxoimidazolidin-1-yl)methyl]thieno[2,3-d]pyrimidine-2,4(1H,3H)-dione], the IC50 was 34 nM.
The figure for `COCCn1c(=O)n(C(C)COC)c(=O)c2c(C)c(CN3CCNC3=O)sc21` (racemic) [Example 329, 1-(2-Methoxyethyl)-3-(1-methoxypropan-2-yl)-5-methyl-6-[(2-oxoimidazolidin-1-yl)methyl]thieno[2,3-d]pyrimidine-2,4(1H,3H)-dione] is 900 nM; for `COCCn1c(=O)n(CC2CCCO2)c(=O)c2c(C)c(CN3CCNC3=O)sc21` (racemic) [Example 332, 1-(2-Methoxyethyl)-5-methyl-6-[(2-oxoimidazolidin-1-yl)methyl]-3-(tetrahydrofuran-2-ylmethyl)thieno[2,3-d]pyrimidine-2,4(1H,3H)-dione] it is 110 nM.
The figure for `Cc1c(Cn2cc[nH]c2=O)sc2c1c(=O)n(CC(F)(F)F)c(=O)n2CC1CCCO1` (racemic) [Example 341, 5-Methyl-6-[(2-oxo-2,3-dihydro-1H-imidazol-1-yl)methyl]-1-(tetrahydrofuran-2-ylmethyl)-3-(2,2,2-trifluoroethyl)thieno[2,3-d]pyrimidine-2,4(1H,3H)-dione] is 12 nM; for `COCCn1c(=O)c2c(C)c(Cn3cc[nH]c3=O)sc2n(CC2CCCO2)c1=O` (racemic) [Example 346, 3-(2-Methoxyethyl)-5-methyl-6-[(2-oxo-2,3-dihydro-1H-imidazol-1-yl)methyl]-1-(tetrahydrofuran-2-ylmethyl)thieno[2,3-d]pyrimidine-2,4(1H,3H)-dione] it is 37 nM; for `COCCn1c(=O)c2c(C)c(CN3CCNC3=NC#N)sc2n(CC2CCO2)c1=O` (racemic) [Example 364, [1-{[3-(2-Methoxyethyl)-5-methyl-1-(oxetan-2-ylmethyl)-2,4-dioxo-1,2,3,4-tetrahydrothieno[2,3-d]pyrimidin-6-yl]methyl}imidazolidin-2-ylidene]cyanamide] it is 170 nM.
The result for `COCCn1c(=O)c2c(C)c(CN3CCNC3=NC#N)sc2n(CC2CCCO2)c1=O` (racemic) [Example 367, [1-{[3-(2-Methoxyethyl)-5-methyl-2,4-dioxo-1-(tetrahydrofuran-2-ylmethyl)-1,2,3,4-tetrahydrothieno[2,3-d]pyrimidin-6-yl]methyl}imidazolidin-2-ylidene]cyanamide] reads 33 nM; that for `CCn1c(=O)c2c(C)c(CN3CCNC3=NC(=O)OC)sc2n(CC2CCO2)c1=O` (racemic) [Example 371, Methyl [1-{[3-ethyl-5-methyl-1-(oxetan-2-ylmethyl)-2,4-dioxo-1,2,3,4-tetrahydrothieno[2,3-d]pyrimidin-6-yl]methyl}imidazolidin-2-ylidene]carbamate], 9.8 nM; that for `CCn1c(=O)c2c(C)c(CN3CCNC3=NC(=O)OC)sc2n(CC2CCCO2)c1=O` (racemic) [Example 374, Methyl [1-{[3-ethyl-5-methyl-2,4-dioxo-1-(tetrahydrofuran-2-ylmethyl)-1,2,3,4-tetrahydrothieno[2,3-d]pyrimidin-6-yl]methyl}imidazolidin-2-ylidene]carbamate], 7 nM.
